Measured values taken from PubChem BioAssay AID1963438 (Molecular Pharmacology Branch, DTP, NCI, 2024).

Test system: NCI-H510 multicellular tumor spheroid growth, % test/control
Experiment: Anticancer human tumor NCI-H510 cell line growth inhibition [Asc];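 further: spheroids exposed to agents for 7 days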;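 on viability, T/C: 100% = DMSO vehicle control wells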
Conditions: for IC50: curve of first compound; for viability, T/C: stronger effect = lower value
How it was run: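 Tumor cells were grown as multicellular spheroids with stromal HUVEC and mesenchymal stem cells and treated singly or in combination. Concentrations fell in half-log steps from the clinical Cmax, or from 10 microM where none was known.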

[1] = second compound 0.03 µM, first compound 0.0316 µM
[2] = second compound 0.03 µM, first compound 0.1 µM
[3] = second compound 0.03 µM, first compound 0.316 µM
[4] = second compound 0.03 µM, first compound 1 µM
[5] = second compound 0.03 µM, first compound 3.16 µM
[6] = second compound 0.03 µM, first compound 10 µM
[7] = second compound 0.0949 µM, first compound 0.0316 µM
[8] = second compound 0.0949 µM, first compound 0.1 µM
[9] = second compound 0.0949 µM, first compound 0.316 µM
[10] = second compound 0.0949 µM, first compound 1 µM
[11] = second compound 0.0949 µM, first compound 3.16 µM
[12] = second compound 0.0949 µM, first compound 10 µM
[13] = second compound 0.3 µM, first compound 0.0316 µM
[14] = second compound 0.3 µM, first compound 0.1 µM
[15] = second compound 0.3 µM, first compound 0.316 µM
[16] = second compound 0.3 µM, first compound 1 µM
[17] = second compound 0.3 µM, first compound 3.16 µM
[18] = second compound 0.3 µM, first compound 10 µM
[19] = second compound 0.949 µM, first compound 0.0316 µM
[20] = second compound 0.949 µM, first compound 0.1 µM
[21] = second compound 0.949 µM, first compound 0.316 µM
[22] = second compound 0.949 µM, first compound 1 µM
[23] = second compound 0.949 µM, first compound 3.16 µM
[24] = second compound 0.949 µM, first compound 10 µM
[25] = second compound 3 µM, first compound 0.0316 µM
[26] = second compound 3 µM, first compound 0.1 µM
[27] = second compound 3 µM, first compound 0.316 µM
[28] = second compound 3 µM, first compound 1 µM
[29] = second compound 3 µM, first compound 3.16 µM
[30] = second compound 3 µM, first compound 10 µM

O=C(c1cc(Cc2n[nH]c(=O)c3ccccc23)ccc1F)N1CCN(C(=O)C2CC2)CC1 + CCN1C(C(=O)NC23CCC(C(=O)O)(CC2)CC3)C(c2cccc(Cl)c2F)C2(C(=O)Nc3cc(Cl)ccc32)C12CCCCC2
IC50 (second compound 0.03 µM): 1330 nM
IC50 (second compound 0.0949 µM): 2020 nM
IC50 (second compound 0.3 µM): 1360 nM
IC50 (second compound 0.949 µM): 2620 nM
IC50 (second compound 3 µM): 2550 nM
viability, T/C [1]: 77.3%
viability, T/C [2]: 101%
viability, T/C [3]: 100%
viability, T/C [4]: 60.9%
viability, T/C [5]: 18.1%
viability, T/C [6]: 8.44%
viability, T/C [7]: 81.3%
viability, T/C [8]: 106%
viability, T/C [9]: 105%
viability, T/C [10]: 77.5%
viability, T/C [11]: 32.7%
viability, T/C [12]: 19.7%
viability, T/C [13]: 79.8%
viability, T/C [14]: 102%
viability, T/C [15]: 95.7%
viability, T/C [16]: 57%
viability, T/C [17]: 25.5%
viability, T/C [18]: 8.82%
viability, T/C [19]: 109%
viability, T/C [20]: 99.8%
viability, T/C [21]: 97.5%
viability, T/C [22]: 86.7%
viability, T/C [23]: 42.5%
viability, T/C [24]: 5.78%
viability, T/C [25]: 94.5%
viability, T/C [26]: 78.1%
viability, T/C [27]: 95.1%
viability, T/C [28]: 93.3%
viability, T/C [29]: 40.8%
viability, T/C [30]: 22.3%

COc1c(OCCCN2CCOCC2)ccc2c3n(c(=NC(=O)c4cnc(N)nc4)nc12)CCN3 + CCN1C(C(=O)NC23CCC(C(=O)O)(CC2)CC3)C(c2cccc(Cl)c2F)C2(C(=O)Nc3cc(Cl)ccc32)C12CCCCC2
IC50 (second compound 0.03 µM): > 1000 nM
IC50 (second compound 0.0949 µM): > 1000 nM
IC50 (second compound 0.3 µM): > 1000 nM
IC50 (second compound 0.949 µM): > 1000 nM
IC50 (second compound 3 µM): > 1000 nM
viability, T/C (second compound 0.03 µM, first compound 0.00316 µM): 94.2%
viability, T/C (second compound 0.03 µM, first compound 0.01 µM): 112%
viability, T/C [1]: 96.4%
viability, T/C [2]: 93.6%
viability, T/C [3]: 70%
viability, T/C [4]: 58.7%
viability, T/C (second compound 0.0949 µM, first compound 0.00316 µM): 94.3%
viability, T/C (second compound 0.0949 µM, first compound 0.01 µM): 91%
viability, T/C [7]: 98.4%
viability, T/C [8]: 99.3%
viability, T/C [9]: 92.5%
viability, T/C [10]: 65.6%
viability, T/C (second compound 0.3 µM, first compound 0.00316 µM): 92.3%
viability, T/C (second compound 0.3 µM, first compound 0.01 µM): 101%
viability, T/C [13]: 105%
viability, T/C [14]: 105%
viability, T/C [15]: 95.6%
viability, T/C [16]: 51.2%
viability, T/C (second compound 0.949 µM, first compound 0.00316 µM): 80.6%
viability, T/C (second compound 0.949 µM, first compound 0.01 µM): 99.5%
viability, T/C [19]: 114%
viability, T/C [20]: 104%
viability, T/C [21]: 62%
viability, T/C [22]: 80.4%
viability, T/C (second compound 3 µM, first compound 0.00316 µM): 112%
viability, T/C (second compound 3 µM, first compound 0.01 µM): 105%
viability, T/C [25]: 73.9%
viability, T/C [26]: 85%
viability, T/C [27]: 86.5%
viability, T/C [28]: 83.3%

O=C(c1cc(Cc2n[nH]c(=O)c3ccccc23)ccc1F)N1CCN(C(=O)C2CC2)CC1 + CNC(C)C(=O)NC1CN(S(=O)(=O)c2cccc(S(=O)(=O)N3CCC4CCC(C(=O)NC(c5ccccc5)c5ccccc5)N4C(=O)C(NC(=O)C(C)NC)C3)c2)CCC2CCC(C(=O)NC(c3ccccc3)c3ccccc3)N2C1=O
IC50 (second compound 0.01 µM): 9490 nM
IC50 (second compound 0.0316 µM): 8070 nM
IC50 (second compound 0.1 µM): 8900 nM
IC50 (second compound 0.316 µM): 9800 nM
IC50 (second compound 1 µM): > 10000 nM
viability, T/C (second compound 0.01 µM, first compound 0.0316 µM): 103%
viability, T/C (second compound 0.01 µM, first compound 0.1 µM): 98.5%
viability, T/C (second compound 0.01 µM, first compound 0.316 µM): 110%
viability, T/C (second compound 0.01 µM, first compound 1 µM): 91.7%
viability, T/C (second compound 0.01 µM, first compound 3.16 µM): 89.4%
viability, T/C (second compound 0.01 µM, first compound 10 µM): 47.9%
viability, T/C (second compound 0.0316 µM, first compound 0.0316 µM): 99.8%
viability, T/C (second compound 0.0316 µM, first compound 0.1 µM): 101%
viability, T/C (second compound 0.0316 µM, first compound 0.316 µM): 96.2%
viability, T/C (second compound 0.0316 µM, first compound 1 µM): 109%
viability, T/C (second compound 0.0316 µM, first compound 3.16 µM): 95%
viability, T/C (second compound 0.0316 µM, first compound 10 µM): 39.7%
viability, T/C (second compound 0.1 µM, first compound 0.0316 µM): 90.3%
viability, T/C (second compound 0.1 µM, first compound 0.1 µM): 89.2%
viability, T/C (second compound 0.1 µM, first compound 0.316 µM): 83.2%
viability, T/C (second compound 0.1 µM, first compound 1 µM): 114%
viability, T/C (second compound 0.1 µM, first compound 3.16 µM): 91.8%
viability, T/C (second compound 0.1 µM, first compound 10 µM): 45.3%
viability, T/C (second compound 0.316 µM, first compound 0.0316 µM): 97.8%
viability, T/C (second compound 0.316 µM, first compound 0.1 µM): 107%
viability, T/C (second compound 0.316 µM, first compound 0.316 µM): 117%
viability, T/C (second compound 0.316 µM, first compound 1 µM): 87.5%
viability, T/C (second compound 0.316 µM, first compound 3.16 µM): 89.1%
viability, T/C (second compound 0.316 µM, first compound 10 µM): 48.9%
viability, T/C (second compound 1 µM, first compound 0.0316 µM): 112%
viability, T/C (second compound 1 µM, first compound 0.1 µM): 110%
viability, T/C (second compound 1 µM, first compound 0.316 µM): 104%
viability, T/C (second compound 1 µM, first compound 1 µM): 101%
viability, T/C (second compound 1 µM, first compound 3.16 µM): 92.1%
viability, T/C (second compound 1 µM, first compound 10 µM): 58%

C#Cc1c(F)ccc2cc(O)cc(-c3ncc4c(N5CC6CCC(C5)N6)nc(OCC56CCCN5CC(F)C6)nc4c3F)c12 (stereo not given) + CCN1C(C(=O)NC23CCC(C(=O)O)(CC2)CC3)C(c2cccc(Cl)c2F)C2(C(=O)Nc3cc(Cl)ccc32)C12CCCCC2
IC50 (second compound 0.03 µM): > 10000 nM
IC50 (second compound 0.0949 µM): > 10000 nM
IC50 (second compound 0.3 µM): > 10000 nM
IC50 (second compound 0.949 µM): > 10000 nM
IC50 (second compound 3 µM): > 10000 nM
viability, T/C [1]: 118%
viability, T/C [2]: 98.2%
viability, T/C [3]: 92.6%
viability, T/C [4]: 92.1%
viability, T/C [5]: 105%
viability, T/C [6]: 110%
viability, T/C [7]: 93.8%
viability, T/C [8]: 100%
viability, T/C [9]: 103%
viability, T/C [10]: 100%
viability, T/C [11]: 103%
viability, T/C [12]: 95.4%
viability, T/C [13]: 109%
viability, T/C [14]: 113%
viability, T/C [15]: 92.5%
viability, T/C [16]: 107%
viability, T/C [17]: 91.4%
viability, T/C [18]: 87.6%
viability, T/C [19]: 93%
viability, T/C [20]: 108%
viability, T/C [21]: 98%
viability, T/C [22]: 109%
viability, T/C [23]: 106%
viability, T/C [24]: 95.1%
viability, T/C [25]: 110%
viability, T/C [26]: 107%
viability, T/C [27]: 114%
viability, T/C [28]: 99.9%
viability, T/C [29]: 101%
viability, T/C [30]: 102%
